# According to ChEMBL document CHEMBL3885861, “Open TG-GATES”:
# Species: Rattus norvegicus
# Test: Open TG-GATES - Regimen: Single
# Assay type: toxicity, organism-based, Sprague-Dawley
# Parameters: regimen Single, gender Male, age 6 weeks
# Details: in vivo, po, 150 mg/kg, route gavage, dose level High; for ALT / AST / BUN / CRE / Ca / Cl / DBIL / GLC / IP / K / LDH / Na / PL / RALB / TBIL / TC / TP / gamma-GTP / ALP: tissue Plasma; for APTT / Bas / Eos / Fbg / Hb / Ht / Lym / MCH / MCHC / MCV / Mono / Neu / PT / Plat / RBC / Ret / WBC: tissue Blood; for KIDNEY_L / KIDNEY_R / KIDNEY_TOTAL: tissue Kidney; for LIVER: tissue Liver
compound,measurement,setting,value
O=P1(N(CCCl)CCCl)NCCCO1 (stereo unspecified) [CYCLOPHOSPHAMIDE ANHYDROUS],ALT,3 h,33.2 IU/L
same,AST,3 h,72 IU/L
same,BUN,3 h,11.2 mg/dL
same,CRE,3 h,0.2 mg/dL
same,Ca,3 h,10.9 mg/dL
same,Cl,3 h,105.2 meq/L
same,DBIL,3 h,0.018 mg/dL
same,GLC,3 h,176 mg/dL
same,IP,3 h,8.6 mg/dL
same,K,3 h,4.1 meq/L
same,LDH,3 h,75.6 IU/L
same,Na,3 h,140 meq/L
same,PL,3 h,136.8 mg/dL
same,RALB,3 h,2.5 g/dL
same,TBIL,3 h,0.064 mg/dL
same,TC,3 h,71 mg/dL
same,TP,3 h,5.3 g/dL
same,gamma-GTP,3 h,1 IU/L
same,TERMINAL_BW,6 h,185.5 g
same,APTT,6 h,17.1 s
same,Bas,6 h,0%
same,Eos,6 h,1%
same,Fbg,6 h,284.8 mg/dL
same,Hb,6 h,13.2 g/dL
same,Ht,6 h,39.4%
same,Lym,6 h,71.4%
same,MCH,6 h,20.6 pg
same,MCHC,6 h,33.6%
same,MCV,6 h,61.3 fL
same,Mono,6 h,2.4%
same,Neu,6 h,25%
same,PT,6 h,14.2 s
same,Plat,6 h,119.4 x10_4/uL
same,RBC,6 h,643 x10_4/ul
same,Ret,6 h,9%
same,WBC,6 h,86.7 x10_2/uL
same,KIDNEY_L,6 h,0.8 g
same,KIDNEY_R,6 h,0.8 g
same,KIDNEY_TOTAL,6 h,1.7 g
same,LIVER,6 h,6.9 g
same,ALP,6 h,1365.8 IU/L
same,ALT,6 h,34.8 IU/L
same,AST,6 h,76.8 IU/L
same,BUN,6 h,12 mg/dL
same,CRE,6 h,0.2 mg/dL
same,Ca,6 h,10.8 mg/dL
same,Cl,6 h,107 meq/L
same,DBIL,6 h,0.012 mg/dL
same,GLC,6 h,184.4 mg/dL
same,IP,6 h,10.2 mg/dL
same,K,6 h,4.5 meq/L
same,LDH,6 h,64.8 IU/L
same,Na,6 h,143.2 meq/L
same,PL,6 h,138.8 mg/dL
same,RALB,6 h,2.5 g/dL
same,TBIL,6 h,0.062 mg/dL
same,TC,6 h,77.4 mg/dL
same,TP,6 h,5.5 g/dL
same,gamma-GTP,6 h,1.2 IU/L
same,TERMINAL_BW,9 h,190.2 g
same,APTT,9 h,16.2 s
same,Bas,9 h,0%
same,Eos,9 h,0.8%
same,Fbg,9 h,293.4 mg/dL
same,Hb,9 h,13.1 g/dL
same,Ht,9 h,39.2%
same,Lym,9 h,79.4%
same,MCH,9 h,20.5 pg
same,MCHC,9 h,33.5%
same,MCV,9 h,61.1 fL
same,Mono,9 h,1.8%
same,Neu,9 h,17.8%
same,PT,9 h,14 s
same,Plat,9 h,117.6 x10_4/uL
same,RBC,9 h,642.6 x10_4/ul
same,Ret,9 h,8.1%
same,WBC,9 h,50.7 x10_2/uL
same,KIDNEY_L,9 h,0.8 g
same,KIDNEY_R,9 h,0.8 g
same,KIDNEY_TOTAL,9 h,1.7 g
same,LIVER,9 h,7.2 g
same,ALP,9 h,1219.4 IU/L
same,ALT,9 h,26.2 IU/L
same,AST,9 h,67.6 IU/L
same,BUN,9 h,13 mg/dL
same,CRE,9 h,0.2 mg/dL
same,Ca,9 h,10.7 mg/dL
same,Cl,9 h,106.6 meq/L
same,DBIL,9 h,0.014 mg/dL
same,GLC,9 h,185.2 mg/dL
same,IP,9 h,10.5 mg/dL
same,K,9 h,4.2 meq/L
same,LDH,9 h,57.8 IU/L
same,Na,9 h,142.6 meq/L
same,PL,9 h,136.6 mg/dL
same,RALB,9 h,2.6 g/dL
same,TBIL,9 h,0.066 mg/dL
same,TC,9 h,78.2 mg/dL
same,TP,9 h,5.4 g/dL
same,gamma-GTP,9 h,1.4 IU/L
same,TERMINAL_BW,24 h,187.2 g
same,APTT,24 h,16.8 s
same,Bas,24 h,0.2%
same,Eos,24 h,1.4%
same,Fbg,24 h,285.2 mg/dL
same,Hb,24 h,13.3 g/dL
same,Ht,24 h,39%
same,Lym,24 h,63.8%
same,MCH,24 h,21 pg
same,MCHC,24 h,34.1%
same,MCV,24 h,61.6 fL
same,Mono,24 h,2.8%
same,Neu,24 h,31.8%
same,PT,24 h,14.3 s
same,Plat,24 h,100.5 x10_4/uL
same,RBC,24 h,634 x10_4/ul
same,Ret,24 h,5%
same,WBC,24 h,18 x10_2/uL
same,KIDNEY_L,24 h,0.9 g
same,KIDNEY_R,24 h,0.9 g
same,KIDNEY_TOTAL,24 h,1.8 g
same,LIVER,24 h,7.4 g
same,ALP,24 h,1374 IU/L
same,ALT,24 h,27.8 IU/L
same,AST,24 h,67.8 IU/L
same,BUN,24 h,17 mg/dL
same,CRE,24 h,0.2 mg/dL
same,Ca,24 h,10.5 mg/dL
same,Cl,24 h,107 meq/L
same,DBIL,24 h,0.02 mg/dL
same,GLC,24 h,178.8 mg/dL
same,IP,24 h,9 mg/dL
same,K,24 h,4.6 meq/L
same,LDH,24 h,55.2 IU/L
same,Na,24 h,142 meq/L
same,PL,24 h,138.2 mg/dL
same,RALB,24 h,2.5 g/dL
same,TBIL,24 h,0.068 mg/dL
same,TC,24 h,86.2 mg/dL
same,TP,24 h,5.3 g/dL
same,gamma-GTP,24 h,1 IU/L
